PubChem BioAssay (NCI)
Several values for one entry are separate records, joined by “and”; a condition that tells them apart may be missing. Equal entries are not always repeated.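 Test compounds were applied to cells in 96-well plates for 48 hours at 5 doses. GI50 = concentration required for 50% inhibition of growth. TGI: total growth inhibition.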

Assays:
Experiment in all cases: inhibition of tumour cell growth, NCI panel, 48 h
EKVX NSCLC = tested on: EKVX NSCLC
IGROV1 ovarian = tested on: IGROV1 ovarian
A549 NSCLC = tested on: A549 NSCLC
SF-295 CNS = tested on: SF-295 CNS
SW-620 colon = tested on: SW-620 colon
SNB-75 CNS = tested on: SNB-75 CNS
UACC-62 melanoma = tested on: UACC-62 melanoma
SN12C renal = tested on: SN12C renal

SMILES	TGI (EKVX NSCLC)	TGI (IGROV1 ovarian)	TGI (A549 NSCLC) [µM]	TGI (SF-295 CNS)	TGI (SW-620 colon)	TGI (SNB-75 CNS)	TGI (UACC-62 melanoma)	TGI (SN12C renal) [µM]	GI50 (EKVX NSCLC)	GI50 (SW-620 colon)	GI50 (SNB-75 CNS)	GI50 (UACC-62 melanoma)	GI50 (SN12C renal) [µM]
NC(=O)NNC/C(Cl)=C(\Cl)C(=O)O	> 100 µM	> 100 µM	> 100	> 100 µM	> 100 µM	> 100 µM	> 100 µM	> 100					
C/C(=N\N=C(N)N)C(CN1CCOCC1)C(c1ccccc1)c1c(O)c2ccccc2oc1=O (configuration not stated)	> 100 µM	> 100 µM	> 100	> 100 µM	> 100 µM	99.4 µM	> 100 µM	> 100					
C=CC1=C(C)C(/C=c2\[nH]/c(=C/c3[nH]c(CC4NC(=O)C(C)/C4=C\C)c(C)c3CCC(=O)O)c(CC(=O)O)c2C)=NC1=O (configuration not stated)	> 100 µM	> 100 µM	> 100	> 100 µM	> 100 µM	> 100 µM	> 100 µM	> 100					
O=C1CCC2(O)c3ccccc3C2Cc2ccccc21 (configuration not stated)	> 100 µM	> 100 µM		> 100 µM	> 100 µM	> 100 µM	> 100 µM	> 100					
OC1OCC(COc2cc(Cl)c(Cl)cc2Cl)OC1O (configuration not stated)	81.9 µM	> 100 µM	> 100	> 100 µM	47.7 µM	> 100 µM	> 100 µM	> 100					
COc1cc(C2c3cc4c(cc3[C@@H](NC3CCN(Cc5ccccc5)CC3)C3COC(=O)[C@H]23)OCO4)cc(OC)c1O (some centres not stated)	2.43 µM and 3.96 µM	3.59 µM and 0.567 µM	0.178	0.498 µM and 0.752 µM	2.42 µM and 1.08 µM	1.79 µM and 0.636 µM	1.38 µM and 0.216 µM	3.89	0.369 µM and 0.783 µM	0.232 µM and 0.076 µM	0.0324 µM and 0.218 µM	0.217 µM and 0.0359 µM	1.85
Cc1ccc(/C=C2\CCCCC2=O)cc1	> 100 µM	> 100 µM	> 100	> 100 µM	> 100 µM	> 100 µM	> 100 µM	> 100					
COc1ccc(N=NC2=C(O)CCC2=O)cc1	> 100 µM	> 100 µM	> 100	> 100 µM	> 100 µM	> 100 µM	30.6 µM	> 100					
CSc1ccc(N2C(=O)C3c4[nH]c5ccccc5c4C4CCC(C(C)(C)C)CC4C3C2=O)cc1 (configuration not stated)	44.2 µM	32 µM	33.5	33.4 µM	> 100 µM	39.2 µM	28.9 µM	35.9					
C=CCC1(CN(C)C)CC/C(=C\c2ccc3c(c2)OCO3)C1=O (configuration not stated)	66.9 µM	> 100 µM	> 100	> 100 µM	> 100 µM	> 100 µM	> 100 µM	> 100					
Cc1cc(-c2ccccc2)nc(Nc2cc3ccccc3[nH]2)n1	> 100 µM	> 100 µM	> 100	> 100 µM	> 100 µM		> 100 µM	> 100					
COc1ccc(C(C2=C(O)CC(C)OC2=O)C2=C(O)CC(C)OC2=O)cc1 (configuration not stated)	> 100 µM	> 100 µM	> 100	> 100 µM	> 100 µM	> 100 µM	> 100 µM	> 100					
CCCCCCCCCCCCCCNCC(OC)OC	34.2 µM	32.3 µM	35.3	34.1 µM	33.2 µM	26.9 µM	34.4 µM	30.9					
CCC(O)CCCCCCCCCCCCCCC(=O)O (configuration not stated)	> 100 µM	> 100 µM	> 100	> 100 µM	> 100 µM	> 100 µM	> 100 µM	> 100					
COc1cc(/C=C2\[C@@H]3NC(Cc4c(OC)c(C)c(OC)c(OC)c43)C(=O)N2Cc2ccccc2)c(OC)c(C)c1OC	90.5 µM	> 100 µM	> 100	> 100 µM	> 100 µM	> 100 µM	> 100 µM	> 100					
CC1(c2ccc(F)cc2)C2C(=O)NC(=O)C1C(=O)NC2=O (configuration not stated)	> 100 µM	> 100 µM	> 100	> 100 µM	> 100 µM	> 100 µM	> 100 µM	> 100					
CC1C(c2ccccc2)N(C)C(c2ccccc2)C(C)C1(O)c1ccccc1 (configuration not stated)	> 100 µM	> 100 µM	> 100	> 100 µM	> 100 µM	> 100 µM	> 100 µM	> 100					
O=C(CC12C3C4C1C1C2C3C41CC(=O)NO)NO (configuration not stated)	> 100 µM		> 100	> 100 µM	> 100 µM	81 µM	> 100 µM	> 100					
O=C(NC1CCC[C@H]1OC(=O)c1ccccc1)c1ccccc1 (some centres not stated)	> 100 µM	> 100 µM	> 100	> 100 µM	> 100 µM	98.9 µM	> 100 µM	> 100					
CCO/C=C\C12CCCC1NC(c1ccccc1)(c1ccccc1)O2 (configuration not stated)	> 100 µM	71.1 µM	> 100	> 100 µM	> 100 µM	78.5 µM	53.4 µM	78.3					
